In data set [1] the target is T1, human P450 3A4 (Homo sapiens, UniProt P08684). Briefly: Inhibition of P450 3A4-dependent midazolam 4-hydroxylation.
Data set [2] has as its target T2, human P450 2C9 (Homo sapiens, UniProt P11712). Nature of the data set: Spectral binding titration with purified P450 2C9. Conditions: concentrations up to 100 µM; results not shown.
In data set [3] the target is T1, human P450 3A4. Briefly: Spectral binding titration with purified P450 3A4. Conditions: for spectral change / Type I binding spectra with P450 3A4, in words: decreases in α and β bands monitored, up to 100 µM.
The target of data set [4] is T3, human P450 1A2 (Homo sapiens, UniProt P05177).
T3 sequence (P05177 1-516): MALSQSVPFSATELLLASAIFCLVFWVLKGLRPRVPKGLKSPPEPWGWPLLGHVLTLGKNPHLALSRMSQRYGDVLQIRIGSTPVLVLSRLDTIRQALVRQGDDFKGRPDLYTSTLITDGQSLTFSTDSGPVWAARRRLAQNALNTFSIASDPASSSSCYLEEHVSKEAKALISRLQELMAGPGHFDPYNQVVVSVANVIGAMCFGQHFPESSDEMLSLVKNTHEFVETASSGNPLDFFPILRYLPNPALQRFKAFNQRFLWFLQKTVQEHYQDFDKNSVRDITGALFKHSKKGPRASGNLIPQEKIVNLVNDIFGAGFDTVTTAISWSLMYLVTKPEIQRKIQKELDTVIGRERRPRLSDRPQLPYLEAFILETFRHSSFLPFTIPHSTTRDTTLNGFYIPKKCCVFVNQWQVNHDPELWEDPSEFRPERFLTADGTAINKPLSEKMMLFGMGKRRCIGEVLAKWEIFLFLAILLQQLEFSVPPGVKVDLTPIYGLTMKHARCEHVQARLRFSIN

Data set [5] concerns the target T4, human P450 1A1 (Homo sapiens, UniProt P04798).
T4 sequence (P04798 1-512): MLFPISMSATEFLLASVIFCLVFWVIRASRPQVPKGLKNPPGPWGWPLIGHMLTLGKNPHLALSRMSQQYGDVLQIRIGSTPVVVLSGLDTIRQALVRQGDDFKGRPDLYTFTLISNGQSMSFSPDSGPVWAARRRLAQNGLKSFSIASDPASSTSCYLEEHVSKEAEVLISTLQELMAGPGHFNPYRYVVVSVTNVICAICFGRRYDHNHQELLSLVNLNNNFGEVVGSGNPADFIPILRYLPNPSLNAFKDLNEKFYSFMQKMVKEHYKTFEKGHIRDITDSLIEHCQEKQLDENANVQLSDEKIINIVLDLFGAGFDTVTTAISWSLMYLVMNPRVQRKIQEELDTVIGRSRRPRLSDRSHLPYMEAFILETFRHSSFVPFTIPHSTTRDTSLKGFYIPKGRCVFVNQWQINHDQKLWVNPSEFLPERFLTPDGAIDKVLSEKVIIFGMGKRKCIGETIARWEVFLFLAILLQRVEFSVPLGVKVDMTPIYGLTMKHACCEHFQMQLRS
Briefly: Inhibition of P450 1A1-dependent EROD activity. It counts as biochemical.

The target of data set [6] is T3, human P450 1A2. Nature of the data set: Inhibition of P450 1A2-dependent EROD activity.
Data set [7] concerns the target T5, human P450 1B1 (Homo sapiens, UniProt Q16678).
T5 sequence (Q16678 1-543): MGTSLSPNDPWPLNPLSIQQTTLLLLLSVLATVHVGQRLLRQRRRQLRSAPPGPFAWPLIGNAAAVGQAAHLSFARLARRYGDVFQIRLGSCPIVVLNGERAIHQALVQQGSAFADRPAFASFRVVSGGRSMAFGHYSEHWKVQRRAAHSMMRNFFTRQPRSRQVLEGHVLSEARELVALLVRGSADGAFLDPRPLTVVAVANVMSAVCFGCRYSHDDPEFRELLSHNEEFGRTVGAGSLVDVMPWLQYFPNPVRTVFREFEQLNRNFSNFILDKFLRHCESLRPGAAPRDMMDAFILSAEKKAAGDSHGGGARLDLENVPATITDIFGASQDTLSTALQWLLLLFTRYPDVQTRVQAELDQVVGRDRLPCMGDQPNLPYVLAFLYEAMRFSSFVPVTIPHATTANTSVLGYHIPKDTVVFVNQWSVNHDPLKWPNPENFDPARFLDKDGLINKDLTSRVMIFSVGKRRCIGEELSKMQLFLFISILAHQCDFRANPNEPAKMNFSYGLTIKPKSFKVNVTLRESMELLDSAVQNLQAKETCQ
Briefly: Inhibition of P450 1B1-dependent EROD activity. It counts as biochemical.

Data set [8] addresses T5, human P450 1B1. Briefly: Spectral binding titration with purified P450 1B1.
Data set [9] concerns the target T2, human P450 2C9. Briefly: Inhibition of P450 2C9-dependent flurbiprofen 4’-hydroxylation.
For data set [10], the target named is T1, human P450 3A4. Nature of the data set: Effect on P450 3A4-catalyzed midazolam 1’-hydroxylation.

We go through 22 compounds from PMC3072440 (Chemical research in toxicology, 2010).

Where two headings read alike, the source gives them in different places.

T2 sequence (P11712 whole entry): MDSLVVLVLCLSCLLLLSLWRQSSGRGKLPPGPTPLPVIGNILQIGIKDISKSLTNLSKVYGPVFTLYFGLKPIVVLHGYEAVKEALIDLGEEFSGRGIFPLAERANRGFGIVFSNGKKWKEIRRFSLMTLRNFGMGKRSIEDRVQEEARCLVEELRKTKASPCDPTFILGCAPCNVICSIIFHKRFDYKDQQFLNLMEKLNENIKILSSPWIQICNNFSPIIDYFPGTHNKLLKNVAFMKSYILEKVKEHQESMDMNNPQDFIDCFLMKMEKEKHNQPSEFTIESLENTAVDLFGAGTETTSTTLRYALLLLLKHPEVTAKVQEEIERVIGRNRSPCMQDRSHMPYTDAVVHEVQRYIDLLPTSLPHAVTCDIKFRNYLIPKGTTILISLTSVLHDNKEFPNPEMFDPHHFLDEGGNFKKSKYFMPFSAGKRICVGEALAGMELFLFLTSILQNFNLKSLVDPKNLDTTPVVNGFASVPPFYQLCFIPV
T1 sequence (P08684 whole entry): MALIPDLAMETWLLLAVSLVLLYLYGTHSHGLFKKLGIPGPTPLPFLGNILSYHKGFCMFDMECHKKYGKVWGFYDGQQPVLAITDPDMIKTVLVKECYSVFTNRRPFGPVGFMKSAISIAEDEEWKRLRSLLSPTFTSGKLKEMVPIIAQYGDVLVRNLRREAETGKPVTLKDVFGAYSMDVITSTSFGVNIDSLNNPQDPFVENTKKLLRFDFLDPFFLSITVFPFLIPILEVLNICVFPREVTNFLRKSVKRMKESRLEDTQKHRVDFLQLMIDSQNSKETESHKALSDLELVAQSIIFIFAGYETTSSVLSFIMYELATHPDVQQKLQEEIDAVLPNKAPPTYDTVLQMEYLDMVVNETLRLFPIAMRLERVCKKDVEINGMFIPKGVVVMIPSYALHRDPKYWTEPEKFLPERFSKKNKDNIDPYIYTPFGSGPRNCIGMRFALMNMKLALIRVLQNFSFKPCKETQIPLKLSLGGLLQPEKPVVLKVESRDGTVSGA

The IC50 is the midpoint of a concentration-inhibition curve. A high value points to weaker potency. As for `O=c1cc(-c2ccccc2)oc2cccc(O)c12` [5HF, 5-hydroxyflavone], in [1], the IC50 was > 100 µM.
For `CC(C(=O)O)c1ccc(-c2ccccc2)c(F)c1` (stereo not drawn) [flurbiprofen], the “spectral changes with P450 2C9, in words” value in [2] is on record as “Type I spectra”.
As to `COc1ccccc1-c1cc(=O)c2ccccc2o1` [2’MF, 2’-Methoxyflavone], in data set [1], the “inhibition of P450 3A4 midazolam 4-hydroxylation, in words” value is “not very effective inhibitors”. Moreover, the “spectral change / Type I binding spectra with P450 3A4, in words” value (shortened to “spectral change / Type I binding spectra”) in data set [3] is recorded as “induced spectral changes”.
For `C#CCOc1ccc(-c2cc(=O)c3c(ccc4ccccc43)o2)cc1` [BNF4’PE, β–naphthoflavone 4’-propargyl ether], the “inhibition of P450 1A2 EROD, in words” value in data set [4] is recorded as “only weakly”.
`C#CCOc1ccc(-c2cc(=O)c3ccc4ccccc4c3o2)cc1` [ANF4’PE, α-naphthoflavone 4’-propargyl ether]: in data set [4], the IC50 came to 0.1 µM.
For `COc1cccc(-c2cc(=O)c3ccccc3o2)c1` [3’MF, 3’-methoxyflavone], the “inhibition of P450 3A4 midazolam 4-hydroxylation, in words” value in data set [1] was “not very effective inhibitors”. Moreover, in data set [3], the “spectral change / Type I binding spectra” value is given as “induced spectral changes”.
For `O=c1cc(-c2ccccc2)oc2ccc3ccccc3c12` [BNF, β–naphthoflavone], the “inhibition of P450 1A1 EROD, in words” value in data set [5] is reported as “strongly inhibited”. For the same compound, the “inhibition of P450 1A2 EROD, in words” value in data set [6] is on record as “only weakly”. In addition, the “spectral changes with P450 2C9, in words” value in [2] is on record as “did not induce spectral changes”. Moreover, the “inhibition of P450 3A4 midazolam 4-hydroxylation, in words” value in data set [1] is listed as “not active inhibitors”. The compound also had an IC50 in [7] of 0.017 µM.
Turning to `O=c1cc(-c2ccccc2)oc2ccccc12` [flavone], the IC50 in data set [5] was determined as 0.98 ± 0.21 µM; in [6], 0.13 ± 0.03 µM; in data set [9], 14 ± 1.2 µM. The “binding spectra with P450 1B1, in words” value in [8] is listed as “Reverse Type I binding spectra”. Besides, the “spectral changes with P450 2C9, in words” value in data set [2] is “did not induce spectral changes”. In addition, the “inhibition of P450 3A4 midazolam 4-hydroxylation, in words” value in [1] was “inhibited the formation of 4-hydroxymidazolam”. Further, the “spectral change / Type I binding spectra” value in data set [3] is “Type I spectral change”. Further, in [3] (purified P450 3A4), the “ΔAmax, P450 3A4, from difference spectra (Soret band)” value is on record as 0.12 ± 0.02. Moreover, the “effect on formation of 1’-hydroxymidazolam by P450 3A4, in words” value (shortened to “effect on formation”) in data set [10] is given as “enhanced the formation of 1’-hydroxymidazolam”.
Regarding `C#CCOc1ccccc1-c1cc(=O)c2ccc3ccccc3c2o1` [ANF2’PE, α-naphthoflavone 2’-propargyl ether], inhibition in data set [4] was half-maximal at 0.24 µM (IC50).
Consider `COc1ccc(-c2cc(=O)c3ccccc3o2)cc1` [4’MF, 4’-methoxyflavone], for which, in data set [1], the “inhibition of P450 3A4 midazolam 4-hydroxylation, in words” value is “not very effective inhibitors”. Also, in data set [3], the “spectral change / Type I binding spectra” value is recorded as “induced spectral changes”.
Consider `COc1ccc(-c2cc(=O)c3ccc(O)c(O)c3o2)cc1OC` [3’4’DM78DHF, 3’,4’-dimethoxy-7,8-dihydroxyflavone], for which the half-inhibitory concentration (IC50) in data set [5] was 41 ± 10 µM; in data set [6], > 100 µM; in [9], 25 ± 4.2 µM; in data set [1] it was > 100 µM; in data set [7] it was > 100 µM. The “inhibition of P450 1A2 at 100 µM, in words” value in data set [6] (100 µM concentration) is given as “did not inhibit”. Also, the “inhibition of P450 3A4 at 100 µM, in words” value in [1] (100 µM concentration) was “not inhibitory”.
As to `O=c1cc(-c2ccccc2)oc2cc(O)ccc12` [7HF, 7-hydroxyflavone], the “inhibition of P450 2C9 flurbiprofen 4’-hydroxylation, in words” value in data set [9] is listed as “strong inhibitors”. In data set [2], the “spectral changes with P450 2C9, in words” value is reported as “did not induce spectral changes”. Further, the concentration for half-maximal inhibition (IC50) in data set [1] was > 100 µM.
Regarding `COc1ccc(-c2cc(=O)c3c(O)cc(O)cc3o2)cc1` [4’M57DHF, 4’-methoxy-5,7-dihydroxyflavone], in data set [9], the IC50 amounted to 0.65 ± 0.13 µM and the “inhibition of P450 2C9 flurbiprofen 4’-hydroxylation, in words” value was “strong inhibitors”. Moreover, in [2], the “spectral changes with P450 2C9, in words” value is recorded as “did not induce spectral changes”. Moreover, the “inhibition of P450 3A4 midazolam 4-hydroxylation, in words” value in data set [1] is reported as “significantly inhibited”. In data set [3], the “spectral change / Type I binding spectra” value was “induced spectral changes”. Moreover, in [10], the “effect on formation” value is “slightly activated”.
On to `C[C@@H]1O[C@@H](O[C@H]2[C@H](Oc3cc(O)c4c(c3)O[C@H](c3ccc(O)cc3)CC4=O)O[C@H](CO)[C@@H](O)[C@@H]2O)[C@H](O)[C@H](O)[C@H]1O` [4’57THFvaG, 4’,5,7-trihydroxyflavanone glycoside], for which, in [7], the “inhibition of P450 1B1 EROD, in words” value is recorded as “weak inhibitor”.
As for `O=c1c(O)c(-c2ccc(O)cc2)oc2cc(O)cc(O)c12` [34’57TetraHF, 3,4’,5,7-tetrahydroxyflavone], the “spectral changes with P450 2C9, in words” value in data set [2] is reported as “did not induce spectral changes”.
Regarding `C#CCOc1ccccc1-c1cc(=O)c2c(ccc3ccccc32)o1` [BNF2’PE, β–naphthoflavone 2’-propargyl ether], the “inhibition of P450 1A2 EROD, in words” value in [4] is “only weakly”.
Turning to `COc1ccccc1-c1cc(=O)c2c(O)cc(O)cc2o1` [2’M57DHF, 2’-methoxy-5,7-dihydroxyflavone], the figures for the IC50 in data set [5] and in [1] were 1.4 µM and 2 µM, respectively. Besides, in [9], the “inhibition of P450 2C9 flurbiprofen 4’-hydroxylation, in words” value was “strong inhibitors”.
Regarding `COc1ccccc1-c1cc(=O)c2ccc(O)c(O)c2o1` [2’M78DHF, 2’-methoxy-7,8-dihydroxyflavone], the “binding spectra with P450 1B1, in words” value in data set [8] is listed as “no binding spectra”; in [8] (listed as 2M78DHF), “did not show spectra”.
For the compound `O=c1c(O)c(-c2ccccc2)oc2cc(O)cc(O)c12` [357THF, 3,5,7-trihydroxyflavone], in data set [9], the IC50 turned out to be 0.2 ± 0.03 µM and the “inhibition of P450 2C9 flurbiprofen 4’-hydroxylation, in words” value was “strong inhibitors”. Moreover, in data set [2], the “spectral changes with P450 2C9, in words” value is “did not induce spectral changes”. Besides, in data set [1], the IC50 is 2.3 ± 0.3 µM and the “inhibition of P450 3A4 midazolam 4-hydroxylation, in words” value is “significantly inhibited”. In data set [3], the “spectral change / Type I binding spectra” value was “induced spectral changes”. In data set [10], the “effect on formation” value was “slightly activated”.
`O=c1cc(-c2ccccc2)oc2c1ccc1ccccc12` [ANF, α-naphthoflavone]: the “inhibition of P450 1A1 EROD, in words” value in data set [5] is “strongly inhibited”. For the same compound, the “spectral changes with P450 2C9, in words” value in data set [2] is reported as “did not induce spectral changes”. This compound also returned an IC50 in [1] of 18 µM.
As for `COc1ccc(-c2cc(=O)c3ccccc3o2)cc1OC` [3’4’DMF, 3’,4’-dimethoxyflavone], the “inhibition of P450 3A4 midazolam 4-hydroxylation, in words” value in [1] is listed as “not very effective inhibitors”.
Consider `COc1ccc(-c2coc3cc(O)cc(O)c3c2=O)cc1` [4’M57DHIsoF, 4’-methoxy-5,7-dihydroxyisoflavone], for which, in data set [2], the “spectral changes with P450 2C9, in words” value was “did not induce spectral changes”. In data set [7], this compound registered a half-inhibitory concentration (IC50) of 0.7 µM. The “pattern of inhibition of P450 1B1 (kinetic analysis)” value in [7] (357THF 0.02 µM, 4’57THFva 8.0 µM, 4’M57DHisoF 8.0 µM, results not shown) is recorded as “mixed-type”.
